ChEMBL document CHEMBL5107972 (RSC Med Chem, 2022)
In brackets after ≈: the same amount, converted by molar mass.

Assays:
Type in all cases: functional
[1] = tested on: Mycobacterium tuberculosis; assay: Antitubercular activity against clinical isolate rifampicin-resistant Mycobacterium tuberculosis ATCC 35838 assessed as inhibition of bacterial growth incubated for 7 days by Presto blue resazurin microtiter plate assay; settings: ATCC 35838, 168 h, time 7 day
[2] = tested on: Mycobacterium tuberculosis; assay: Antitubercular activity against clinical isolate isoniazid-resistant Mycobacterium tuberculosis ATCC 35822 assessed as inhibition of bacterial growth incubated for 7 days by Presto blue resazurin microtiter plate assay; settings: ATCC 35822, 168 h, time 7 day
[3] = tested on: Mycobacterium tuberculosis; assay: Antitubercular activity against clinical isolate streptomycin-resistant Mycobacterium tuberculosis ATCC 35820 assessed as inhibition of bacterial growth incubated for 7 days by Presto blue resazurin microtiter plate assay; settings: ATCC 35820, 168 h, time 7 day
[4] = tested on: Mycobacterium tuberculosis; assay: Antitubercular activity against clinical isolate ethambutol-resistant Mycobacterium tuberculosis ATCC 35837 assessed as inhibition of bacterial growth incubated for 7 days by Presto blue resazurin microtiter plate assay; settings: ATCC 35837, 168 h, time 7 day

Row | Compound | MIC [1] | MIC [2] | MIC [3] | MIC [4]
1 | CC[C@@H](CO)NCCN[C@@H](CC)CO [ETHAMBUTOL] | 2 µg/mL (≈ 9.79 µM) | 4 µg/mL (≈ 19.6 µM) | 2 µg/mL (≈ 9.79 µM) | 32 µg/mL (≈ 157 µM)
2 | NNC(=O)c1ccncc1 [ISONIAZID] | 0.03 µg/mL (≈ 0.219 µM) | > 64 µg/mL | 0.03 µg/mL (≈ 0.219 µM) | 0.03 µg/mL (≈ 0.219 µM)
3 | CO[C@H]1/C=C/O[C@@]2(C)Oc3c(C)c(O)c4c(O)c(c(/C=N/N5CCN(C)CC5)c(O)c4c3C2=O)NC(=O)/C(C)=C\C=C\[C@H](C)[C@H](O)[C@@H](C)[C@@H](O)[C@@H](C)[C@H](OC(C)=O)[C@@H]1C [RIFAMPIN] | 64 µg/mL (≈ 77.8 µM) | 0.03 µg/mL (≈ 0.0365 µM) | 0.03 µg/mL (≈ 0.0365 µM) | 0.03 µg/mL (≈ 0.0365 µM)
4 | CN[C@@H]1[C@H](O[C@H]2[C@H](O[C@H]3[C@H](O)[C@@H](O)[C@H](N=C(N)N)[C@@H](O)[C@@H]3N=C(N)N)O[C@@H](C)[C@]2(O)C=O)O[C@@H](CO)[C@H](O)[C@H]1O [STREPTOMYCIN] | 1 µg/mL (≈ 1.72 µM) | 1 µg/mL (≈ 1.72 µM) | > 64 µg/mL | 1 µg/mL (≈ 1.72 µM)
